We go through six compounds from US11254640B2, “N-substituted indoles and other heterocycles for treating brain disorders” (The Regents of the University of California, priority 2019, dated 2022).

Entries after “also recorded” stand apart in the source; their conditions may differ. Where two headings read alike, the source gives them in different places. A value given as a limit tells only on which side of the number the result lay.

The test system of one data set is rat cortical neurons. The experiment in a line: Neurite outgrowth assay. Format: cell-based. The note with it: Cortical neurone, 1 hour treatment at DIV 4, analysed DIV 7, fold vs DMSO control. A digest of the protocol: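 Embryonic day 18 rat cortical neurons, 20,000 cells/well in Neurobasal/B27, were exposed at DIV 4 to 10 μM compound for 1 hour, then washed out. At DIV 7, β-III-tubulin immunostaining and automated imaging gave neurite length, branch points, root and extremity counts, reported as fold-change versus DMSO; triplicates.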

A further data set concerns cortical neurons. The data set is described as follows: Dendritogenesis assay, Sholl analysis. It counts as cell-based, rat. The note with it: for Emax at 10 µM: Rattus norvegicus, Cortical neurone, Nmax with vehicle (DMSO) = 0% and ketamine = 100%, read-out: % efficacy in sholls; for psychoplastogenic efficacy and potency, concentration-response (Nmax): concentrations ranging from 10 μM to 10 pM (FIG. 6). A digest of the protocol: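 Rat cortical neurons (timed-pregnant Sprague Dawley) were treated at DIV3 with compound at 10 μM unless noted (0.1% DMSO) for 1 h, washed out, grown 71 h more. Fixed, MAP2-immunostained, imaged; Sholl Nmax, with % efficacy scaled to DMSO (0%) and ketamine (100%).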

In a further data set the test system is C57BL/6J mice. The experiment in a line: Head twitch response (HTR) assay. The settings on record: intraperitoneal injection, head-twitches over 20 mins (FIG. 8, FIG. 9). It counts as in vivo, mouse. The source says: Animals. For the dendritogenesis experiments, timed pregnant Sprague Dawley rats were obtained from Charles River Laboratories (Wilmington, Mass.). For the head-twitch response assay, male and female C57BL/6J mice were obtained from Jackson Laboratory (Sacramento, Calif.). Mice were housed in a temperature and humidity-controlled room maintained on a 12-h light/dark cycle in groups of 4-5 (same sex). Animals weighed between 17 and 30 g at the time of the experiments. All experimental procedures involving rodents were approved by the UC Davis Institutional Animal Care and Use Committee (IACUC) and adhered to principles described in the National Institutes of Health Guide for the Care and Use of Laboratory Animals. The University of California, Davis and the University of California, San Francisco are accredited by the Association for Assessment and Accreditation of Laboratory Animal Care International (AAALAC).
Head twitch response experiments. Mice (9-10 weeks old) were injected intraperitoneally with compound (injection volume 5 ml/kg), placed in an empty cage, and filmed for 20 minutes. Cages were cleaned with 70% ethanol between experiments.

A further data set deals with rats. The note with it: rats trained to discriminate DOM from saline, cited from earlier work.
The mark [1] stands for this setting: read-out: Neurite Average Length @ 10 μM.
Where [2] appears, read: read-out: Neurite Branch Points: @ 10 μM.

Turning to `COc1cccc2c1ccn2CCN(C)C.O=C(O)/C=C/C(=O)O` [Example 3, 2-(4-methoxy-1H-indol-1-yl)-N,N-dimethylethan-1-amine], the melting point (commonly the temperature, or range, at which the solid turns liquid) lay in the range of 140 to 145 °C. For the same compound, in the data set with rat cortical neurons (setting [1]), the fold induction at 10 µM is below 1.5. The fold induction at 10 µM in the data set on rat cortical neurons (setting [2]) fell in the range of 1.5 to 3. For the same compound, in the data set with cortical neurons (10 μM), the Emax at 10 µM was 26%.
Take `COc1ccc2c(ccn2CCN(C)C)c1.O=C(O)/C=C/C(=O)O` [Example 4, 2-(5-methoxy-1H-indol-1-yl)-N,N-dimethylethan-1-amine]: the melting point lay within 140 to 142 °C. Further, the “head-twitch response (hallucinogenic potential)” value (from here on “head-twitch response”) in the data set with C57BL/6J mice is “low hallucinogenic potential; also recorded: did not produce any HTR”. The “substitution for hallucinogenic training drug (DOM) in drug discrimination” value (shortened to “substitution”) in the data set with rats is recorded as “low hallucinogenic potential”. In addition, the “substitution” value in the data set with rats (listed as 5-MeO-isoDMT) is on record as “does not”. In addition, the fold induction at 10 µM in the data set with rat cortical neurons (setting [1]) fell in the range of 1.5 to 3. Moreover, the fold induction at 10 µM in the data set with rat cortical neurons (setting [2]) lay in the range of 1.5 to 3. The Emax at 10 µM with cortical neurons (10 μM) was 65%. The “psychoplastogenic efficacy and potency, concentration-response (Nmax)” value in the data set with cortical neurons was “exceptional psychoplastogen”.
Turning to `COc1ccc2ccn(CCN(C)C)c2c1` [Example 5, 2-(6-methoxy-1H-indol-1-yl)-N,N-dimethylethan-1-amine], the “head-twitch response” value in the data set with C57BL/6J mice is “significantly less potent”. Besides, in the data set on rats, the “substitution” value is reported as “substitutes”. Further, the fold induction at 10 µM with rat cortical neurons (setting [1]) and in the data set with rat cortical neurons (setting [2]) was 1.5 to 3 each time. The Emax at 10 µM in the data set on cortical neurons (10 μM) is 95%. Also, the “psychoplastogenic efficacy and potency, concentration-response (Nmax)” value in the data set with cortical neurons is “comparable maximum efficacies and had similar potencies as isosteric DMTs (1 and 28)”. Moreover, in the data set with cortical neurons (cortical neurons, 10 μM), the “dendritic arbor complexity / neuronal growth (Nmax of Sholl plots)” value was “performed identically to 28 and 29”.
`COc1cccc2ccn(CCN(C)C)c12.O=C(O)/C=C/C(=O)O` [Example 6, 2-(7-methoxy-1H-indol-1-yl)-N,N-dimethylethan-1-amine] returned a melting point of 120 to 123 °C. The fold induction at 10 µM in the data set on rat cortical neurons (setting [1]) was in the range of 1.5 to 3. Also, in the data set with rat cortical neurons (setting [2]), the fold induction at 10 µM lay in the range of 1.5 to 3. For the same compound, the Emax at 10 µM with cortical neurons (10 μM) came out at 92%.
Take `COc1ccc2c(ccn2C[C@@H](C)N(C)C)c1` [Example 59, (R)-1-(5-methoxy-1H-indol-1-yl)-N,N-dimethylpropan-2-amine]: in the data set with C57BL/6J mice, the “head-twitch response” value is listed as “did not produce any HTR”. In addition, the values for the fold induction at 10 µM with rat cortical neurons (setting [1]) and in the data set on rat cortical neurons (setting [2]) were 1.5 to 3 and above 3, respectively.
Turning to `C[C@H](Cn1ccc2cc(F)ccc21)N(C)C` [Example 60, (R)-1-(5-fluoro-1H-indol-1-yl)-N,N-dimethylpropan-2-amine], the “head-twitch response” value in the data set with C57BL/6J mice is “did not produce any HTR”. For the same compound, the fold induction at 10 µM with rat cortical neurons (setting [1]) and in the data set on rat cortical neurons (setting [2]) was 1.5 to 3 in each case.
